Experimental data reported in patent US10196671B2, “Assay method for the detection of viable microbial cells in a sample” (3M INNOVATIVE PROPERTIES COMPANY, priority 2006, dated 2019).

How the values were obtained:
apyrase [1] = biological target: T1, apyrase (Solanum tuberosum, UniProt P80595)
Description: A loop was taken from this plate and transferred to 10 ml Tryptone Soya Broth and grown at 30° C. for exactly 40 hours.
1.3. […] Cells were washed twice in ice-cold Reverse Osmosis water in centrifuge (4500 rpm for 10 mins), resuspended in 10 ml cold Reverse Osmosis water and stored in the fridge.
(§1) Cells for the experiment were prepared using a 100× dilution of this stock with a sterile solution of glucose (10 g/l) and MgCl2 (5 mM) at room temperature. Cells were diluted into this solution at least 20 minutes prior to starting each experiment to allow adaptation to the new conditions.
(§2) 2. 1 ml of the above cell suspension was added to a cuvette.

apyrase [2] = biological target: T1, apyrase; remark: listed apart in the source
Description: (§3) 1. Leuconostoc sp MD 110 was grown by streaking a bead onto de Man Rogosa Sharpe agar to revive bead for stock (place in 30° C. incubator overnight).
a. A loop was taken from this plate and transferred to 10 ml Tryptone Soya Broth and grown at 30° C. for exactly 40 hours.
as §1, with “b. […] Cells were washed twice in ice-cold Reverse Osmosis water in centrifuge (4500 rpm for 10 mins), resuspended in 10 ml cold Reverse Osmosis water and stored in the fridge. c. Cells for” for “Cells for”
d. A luciferase/luciferin reagent formulated with a detergent-resistant luciferase (Promega, Ultraglo) (Liquid Lysate) enzyme was reconstituted in 17.5 ml phosphate buffer pH 7.75.
as §2
3. The suspension was then treated with 1 ml of reconstituted apyrase 0.96 units per ml, and […] of ATP (10^−7M) was added and left for 15 minutes at room temperature.
(§4) 4. Two 100 μl aliquots of the treated suspension was transferred to clean cuvettes.
5. 100 μl of the luciferase/luciferin reagent formulated with a detergent-resistant luciferase (Promega, Ultraglo)/phosphate luciferase was added to each of the cuvettes.
6. To the remaining 2 cuvettes 100 μl of a solution of long chain fatty acid ethoxylates (the extractant) was added and a timer started.
7. Cuvette 1 was read in a luminometer after 5 minutes extraction time.
8. Cuvette 1 was removed from the luminometer and 10 μl of 10^−7M ATP was added to standardise.
9. The sample was returned to the luminometer and read again, then read 5 consecutive times in a row in order to determine the final kinetics of the reaction.
10. After a further five minutes steps 9-11 were repeated for cuvette 2.
11. For the control steps 4 to 13 were repeated but using a luciferase/luciferin reagent formulated with a detergent-resistant luciferase (Promega, Ultraglo) reconstituted in 25 mM HEPES buffer pH 7.75.

apyrase [3] = biological target: T1, apyrase; remark: listed apart in the source
Description: as §3
1.1. A loop was taken from this plate and transferred to 10 ml Tryptone Soya Broth and grown at 30° C. for exactly 40 hours.
Cells were washed twice in ice-cold Reverse Osmosis water in centrifuge (4500 rpm for 10 mins), resuspended in 10 ml cold Reverse Osmosis water and stored in the fridge.
(§5) 1.3. Cells for the experiment were prepared using a 100× dilution of this stock with a sterile solution of glucose (10 g/l) and MgCl2 (5 mM) at room temperature. Cells were diluted into this solution at least 20 minutes prior to starting each experiment to allow adaptation to the new conditions.
A special luciferase/luciferin reagent formulated with a detergent-resistant luciferase (Promega, Ultraglo) enzyme was prepared. This was reconstituted in 17.5 ml of 30 mM phosphate /10 g/l a solution of long chain fatty acid ethoxylates.
as §2
3. The suspension was then treated with 1 ml of reconstituted apyrase 0.96 units per ml, and 10 μl of ATP (10^−7M) was added and left for 15 minutes at room temperature.
as §4
5. To these two cuvettes 100 μl of the luciferase/luciferin reagent formulated with a detergent-resistant luciferase (Promega, Ultraglo) Ultraglo/phosphate/solution of long chain fatty acid ethoxylates was added.
(§6) 6. After 5 minutes extraction time Cuvette 1 was read in a luminometer.
(§7) 7. Cuvette 1 was removed from the luminometer and 10 μl of 10^−7M ATP was added to standardise.
(§8) 8. The sample was returned to the luminometer and read again, then read 5 consecutive times in a row in order to determine the final kinetics of the reaction.
(§9) 9. After a further five minutes the second water cuvette was read in a luminometer.
(§10) 10. Steps 7-11 were repeated for cuvette 2.
11. For the control, steps 4 to 13 were repeated but using a luciferase/luciferin reagent formulated with a detergent-resistant luciferase (Promega, Ultraglo) made by reconstituting in 25 mM HEPES buffer pH 7.75 with a solution of long chain fatty acid ethoxylates (10 g/l).

apyrase [4] = biological target: T1, apyrase; remark: listed apart in the source
Description: as §3
1.1 A loop was taken from this plate and transferred to 10 ml Tryptone Soya Broth and grown at 30° C. for exactly 40 hours.
Cells were washed twice in ice-cold RO water in centrifuge (4500 rpm for 10 mins), resuspended in 10 ml cold Reverse Osmosis water and stored in the fridge.
as §5
1 ml of the above cell suspension was added to a cuvette.
2. The suspension was then treated with 1 ml of reconstituted apyrase 0.96 units per ml, and 10 μl of ATP (10^−7M) was added and left for 15 minutes at room temperature.
3. 2×100 μl aliquots of the treated suspension were added to clean cuvettes.
4. To these 2 cuvettes 20 μl of 100 μM pH 7.75 phosphate solution was added.
5. 100 μl of the extractant (a solution of long chain fatty acid ethoxylates) was added and a timer started.
as §6, §7, §8, §9, §10
11. For the control, steps 4 to 13 were repeated but using 20 μl of Reverse Osmosis water in place of 20 μl phosphate.

T1 sequence (P80595 whole entry, species assumed): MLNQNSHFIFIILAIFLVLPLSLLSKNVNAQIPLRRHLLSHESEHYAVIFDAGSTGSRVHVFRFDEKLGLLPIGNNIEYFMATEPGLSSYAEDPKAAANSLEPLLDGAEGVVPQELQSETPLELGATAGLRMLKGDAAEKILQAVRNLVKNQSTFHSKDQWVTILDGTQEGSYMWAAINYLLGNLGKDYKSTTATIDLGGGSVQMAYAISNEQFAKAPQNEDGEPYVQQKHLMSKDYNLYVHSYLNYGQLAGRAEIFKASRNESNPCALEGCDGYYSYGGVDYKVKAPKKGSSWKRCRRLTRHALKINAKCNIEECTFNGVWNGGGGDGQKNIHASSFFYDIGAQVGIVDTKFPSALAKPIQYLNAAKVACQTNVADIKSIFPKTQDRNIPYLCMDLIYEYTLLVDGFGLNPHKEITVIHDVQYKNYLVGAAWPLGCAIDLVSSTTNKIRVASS

rise in RLU from T-5 to T-10 (apyrase [1]; 30 mM phosphate mixed with the extractant, after 15 min apyrase 0.96 units per ml, Leuconostoc sp MD 110 suspension): 38%
inhibition of apyrase (kinetics, FIG. 1.3) (apyrase [1]; 30 mM phosphate, ATP standard added, consecutive luminometer reads): inhibits the action of apyrase
drop of assay signal (kinetics, FIG. 2.3) (apyrase [2]; in 50 seconds after ATP standard, phosphate buffer pH 7.75): 10%
RLU produced after 5 minutes extraction still remaining at T=10 minutes (apyrase [2]; luciferase reagent reconstituted in phosphate buffer pH 7.75): 73.7%
amount of ATP at T=10 as percentage of that present at T=5 (apyrase [2]; phosphate buffer pH 7.75): 81.3%
amount of ATP at T=5 (apyrase [2]; phosphate buffer pH 7.75, T=5 minutes): 0.035 picomoles
amount of ATP remaining at T=10 (apyrase [2]; phosphate buffer pH 7.75, T=10 minutes): 0.029 picomoles
amount of ATP per assay higher at T=10 than at T=5 (apyrase [3]; 30 mM phosphate in luciferase/extractant reagent): 42%
amount of ATP per assay at T=5 (apyrase [3]; 30 mM phosphate in luciferase/extractant reagent, T=5): 0.0052 picomoles
amount of ATP per assay at T=10 (apyrase [3]; 30 mM phosphate in luciferase/extractant reagent, T=10): 0.0074 picomoles
increase of RLU values (kinetics) (apyrase [3]; in 75 seconds, 30 mM phosphate in luciferase/extractant reagent): 13%
RLU signal higher at T=10 than at T=5 (apyrase [3]; luciferase reagent in 30 mM phosphate / 10 g/l long chain fatty acid ethoxylates): 57%
inhibition of apyrase, ATP broken down in 5 minutes (FIG. 4.2) (apyrase [4]; 20 μl of 100 μM pH 7.75 phosphate solution): does inhibit apyrase
RLU produced after 5 minutes extraction remaining 5 minutes later (apyrase [4]; 20 μl of 100 μM pH 7.75 phosphate solution added before extractant): 100%
level of ATP present in the assay, T-5 to T-10 (apyrase [4]; 20 μl of 100 μM pH 7.75 phosphate solution, patent believes it an artifact of the calculation): increased
drop of RLU values (kinetics) (apyrase [4]; in 46 seconds, 20 μl of 100 μM pH 7.75 phosphate solution): around 1,400 RLU
Substance: phosphate
